This note sets out measurements from article PMC5310922, “A high-throughput phenotypic screen identifies clofazimine as a potential treatment for cryptosporidiosis” (PLoS Neglected Tropical Diseases, 2017).

Data set [1] deals with Cryptosporidium parvum. The data set can be described thus: C. parvum proliferation in HCT-8 cells, 48 h high-content imaging assay. The class given is cell-based, Cryptosporidium parvum (Iowa strain). Conditions: for EC50: Cryptosporidium parvum, 48 h; for EC99 against C. parvum: concentration used in washout assay.
For data set [2], the system named is C. parvum. The data set can be described thus: Mouse model of acute cryptosporidiosis, fecal oocyst shedding by flow cytometry. The class given is in vivo, C57BL/6 IFNγ-/- mice. The conditions noted are these: for oocyst shedding, % of mock-dosed mice: 10 mg/kg oral on days 4, 5, 6 p.i., 10^4 oocysts, day 7 (within 24 h of end of treatment). The method, then: Four week old female C57BL/6 IFNγ^-/- mice were purchased from the Jackson Laboratory and acclimated for four to ten days in specific pathogen-free conditions in the Health Sciences Biomedical Research Facility at the University of California, San Diego. Mice were provided water and chow (Teklad 2920X) ad libitum. […] Treatment regimens included 10 mg/kg, 100 mg/kg, and 0 mg/kg (vehicle only; n = 4 per group). Certain assays also involved gavage of characterized anticryptosporidial BKI-1294 (a kind gift from W. […] Oocysts were extracted via a modified discontinuous sucrose gradient technique. Briefly, […] solution was freshly prepared by dissolving 156.25 g sucrose and 2.5 mL phenol in 100 mL water. Fecal pellets were removed from storage then homogenized by vortexing and pipetting. […] Oocysts were floated from feces by centrifugation at 1,000×g for 20 min and collected with a pipet tip from the 1.064/1.103 specific gravity interface. Oocysts were rinsed once in cold PBS, pelleted by centrifugation at 15,000×g for 10 min, and resuspended in PBS. 50 μL aliquots were incubated for 30 min at room temperature with 0.25 μg fluorescein isothiocyanate-conjugated mouse anti-Cryptosporidium antibody (OW50-FITC, BioRad 2402-3007), then diluted to 200 μL with PBS. Samples were analyzed using a Guava EasyCyte flow cytometer and CytoSoft Data Acquisition and Analysis software (v5.3; Guava Technologies, Inc.), using a 100 s sampling interval, 0.59 μL/s flow rate, and logical gating of forward and side light scatter and OW50-FITC fluorescence signals. Each experimental run included positive and negative controls to calibrate region settings discriminating the oocyst-FITC population from background signals. Oocyst counts/mL sample values were exported to Excel (Microsoft Corp.) for normalization to counts/mg feces. Final graphing and statistical analyses of data were done using GraphPad Prism software (v6, GraphPad Software, Inc.). Two-way ANOVA with Dunnett's correction (Fig 4A) and unpaired multiple t-tests with False Discovery Rate approach (Fig 4B) were performed on % Vehicle data to determine significance between vehicle-treated and compound-treated mice.
For orientation: A flow cytometer gives signals particle by particle.

Data set [3] in a line: HCT-8 host cell cytotoxicity, 48 h (nuclei count). The conditions noted are these: human. The method, then: Cells were then plated (5 μL/well) into 1536-well assay plates at a density of 5.5×10^5 cells/mL (2,750 cells/well).
Plates were then washed twice with phosphate buffered saline (PBS). […] To prevent non-specific binding, the cells were blocked with SuperBlock™ T20 blocking agent (Thermo) for 1 h at room temperature. Cryptosporidium parasites were stained with 1 μg/mL fluorescein isothiocyanate (FITC)-conjugated Vicia villosa lectin (Vector Laboratories) in 1:10 diluted SuperBlock™ in PBS-T, supplemented with 3 μM 4',6-diamidino-2-phenylindole (DAPI) to visualize host cell nuclei. Staining was for 1 h at room temperature in the dark. Finally, cells were washed twice with PBS-T and the plates were sealed with adhesive foil. The plates were imaged with a CellInsight CX5 High Content Screening Platform (Thermo) with a 10× objective. […] For 1536-well format assays (primary screening, triplicate reconfirmation, and dose-response reconfirmation, one microscopic field (802,511.39 μm^2) per well, and for the 384-well washout assay, 4 fields per well were captured. The software identified primary objects (HCT-8 host cells) and spots within allowed distances to the nuclei (Cryptosporidium). Both cytotoxicity against HCT-8 cells (number of nuclei relative to DMSO-treated controls) and Cryptosporidium inhibition (spot counts relative to DMSO-treated controls) were assessed.
Images were processed by the HCS Studio Scan software, and Selected Object Count (HCT-8 cells) and Spot Count (Cryptosporidium) were analyzed in Genedata Screener (v13.0-Standard). Spot Count and Selected Object Count were normalized to neutral controls minus inhibitors (floxuridine for Spot Count, and puromycin for Selected Object Count). For single-point primary assay plates, an additional run-wise median correction was applied to reduce screen artifacts (e.g. uneven dispense), whereas no correction was applied to triplicate reconfirmation and dose-response plates. For primary screening, a compound is considered a hit by a ≥ 70% reduction in Corrected Spot Count. Compounds that caused moderate cytotoxicity were filtered out (i.e., excluding all Corrected Selected Object Counts ≤ -60%). Dose-response curves were fit with Genedata Analyzer using the Smart Fit function.

Data set [4] is described as follows: HEK293T 72 h cytotoxicity (CellTiter-Glo). The class given is cell-based, human. Conditions: human. Here is the method: (§1) Two mammalian cell lines were used for counter-screening for general cytotoxicity of hit compounds: human embryonic kidney cells (HEK293T; ATCC CRL-3216) and human hepatocellular carcinoma cells (HepG2; ATCC HB-8065). […] Compounds were pre-spotted into tissue culture-treated white solid-bottomed 1536-well plates (Greiner) in a 1:3 dose-response dilution (top concentration 20 μM). HEK293T and HepG2 cells were diluted to 75×10^3 cells/mL and 150×10^3 cells/mL, respectively, and 5 μL/well were dispensed into assay plates with a MultiFlo FX Multi-Mode Dispenser (Biotek). […] At the completion of the assay, CellTiter-Glo (Promega) was prepared at 1:2 (reagent:water) of the manufacturer’s instructions, and 2 μL were dispensed into each well. After a 5 min incubation at room temperature, luminescence readings were measured with an EnVision Multilabel Plate Reader (Perkin Elmer). […] were uploaded into Genedata Screener (v13.0-Standard), and data normalized to DMSO- and puromycin-treated wells. A four-parameter non-linear regression curve fit was applied to dose-response data using Genedata to determine the half maximal cytotoxic concentration (CC50) of each compound.
On the technique in general: Cellular ATP, detected with luciferase, serves as a proxy for viable cell number.

Data set [5] is described as follows: HepG2 72 h cytotoxicity (CellTiter-Glo). In kind it is cell-based, human. Conditions: human. The method, then:
as §1

Setting [6] is: HCT-8 cells, read-out: EC50 against C. parvum.
[7] abbreviates: in HCT-8 cells, value (SD; n), read-out: C. parvum 48H Assay EC50 [µM] (SD; n).

Where two headings read alike, the source gives them in different places.

One may read the EC50 as the midpoint of the concentration-response curve. As to `CC(C)/N=c1\cc2n(-c3ccc(Cl)cc3)c3ccccc3nc-2cc1Nc1ccc(Cl)cc1` [Clofazimine], in data set [1] (C. parvum vs C. hominis EC50), the “fold more potent against C. parvum than C. hominis” value is listed as ~ 20 fold. The EC50 in data set [1] (setting [6]) worked out at 0.015 µM; in data set [1] (setting [7]), 0.0149 µM. Further, in data set [1], the “EC99 against C. parvum” value came out at 30 nM. The “oocyst shedding, % of control group” value in data set [2] (10 mg/kg oral daily from day 4 p.i., within two days of treatment onset) is 2.5% ± 1.7%. In data set [2], the “oocyst shedding, % of mock-dosed mice” value is recorded as “below 1%”. The oocyst shedding entry in data set [2] (once daily for three consecutive days or a single high dose) is listed as “reduction of oocyst shedding below the limit detectable by flow cytometry”. Further, the “oocyst shedding, % of mock-treated mice” value in data set [2] (single 100 mg/kg oral dose on day 4, 1×10^6 oocysts, second day after treatment) was 1.5% ± 0.4%. In data set [3] (HCT-8 cells), this compound displayed a CC50 at 48 h of more than 12.5 µM. In addition, the CC50 at 72 h in data set [4] (HEK293T cells, 72 h, value (SD; n), read-out: HEK293T 72H Cytotoxicity CC50 [µM] (SD; n)) was more than 20 µM; in data set [5] (HepG2 cells, 72 h, value (SD; n), read-out: HepG2 72H Cytotoxicity CC50 [µM] (SD; n)), more than 20 µM.

`CCOc1ccc2cc(-c3nn(CC4CCN(C)CC4)c4ncnc(N)c34)ccc2c1` [BKI-1294]: the EC50 in data set [1] (setting [6]) was 0.4 µM; in data set [1] (setting [7]) it was 0.388 µM. For the same compound, in data set [1], the “EC99 against C. parvum” value turned out to be 2000 nM. In addition, the “oocyst shedding, % of mock-dosed mice” value in data set [2] was 18.1% ± 2.2%. In addition, the CC50 at 48 h in data set [3] was more than 12.5 µM. Also, the CC50 at 72 h in data set [4] came out at 12.4 µM; in data set [5], 11.1 µM.
